Measurements published in patent US10689430B2, “Insulin receptor partial agonists” (Merck Sharp & Dohme Corp., priority 2016, dated 2020).

Molecular target: T1, human IR(B) (Homo sapiens, UniProt P06213)
T1 construct: expressed in transfected cells; host or cells: CHO cells (membrane preparation)
Assay: Insulin receptor binding assay (SPA, 125[I]-insulin competition)
Settings: cell membranes from CHO cells overexpressing human IR(B)
Method: Cell membranes were prepared in 50 mM Tris buffer, pH 7.8 containing 5 mM MgCl2.

T1 sequence (P06213 28-758 limits assumed): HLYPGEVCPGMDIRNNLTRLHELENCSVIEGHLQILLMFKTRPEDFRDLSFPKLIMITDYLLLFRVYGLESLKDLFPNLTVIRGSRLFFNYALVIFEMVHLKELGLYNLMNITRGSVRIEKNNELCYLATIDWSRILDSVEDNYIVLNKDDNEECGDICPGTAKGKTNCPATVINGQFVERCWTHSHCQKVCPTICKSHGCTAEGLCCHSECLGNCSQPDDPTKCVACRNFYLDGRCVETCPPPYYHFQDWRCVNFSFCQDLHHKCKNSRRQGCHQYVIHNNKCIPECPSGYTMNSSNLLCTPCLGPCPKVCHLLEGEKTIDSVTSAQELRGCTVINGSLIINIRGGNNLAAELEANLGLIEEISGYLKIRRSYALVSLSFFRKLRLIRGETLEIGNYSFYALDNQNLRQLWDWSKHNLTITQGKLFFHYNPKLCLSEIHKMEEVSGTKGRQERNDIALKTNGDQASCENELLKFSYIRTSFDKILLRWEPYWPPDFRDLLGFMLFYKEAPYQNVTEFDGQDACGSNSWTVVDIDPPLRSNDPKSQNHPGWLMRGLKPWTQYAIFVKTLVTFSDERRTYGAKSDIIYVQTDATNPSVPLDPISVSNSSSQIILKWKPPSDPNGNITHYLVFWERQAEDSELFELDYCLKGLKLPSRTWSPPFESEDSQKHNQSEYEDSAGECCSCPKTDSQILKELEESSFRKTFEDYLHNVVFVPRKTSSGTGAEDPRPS
T1 sequence (P06213 763-1382 partner limits assumed): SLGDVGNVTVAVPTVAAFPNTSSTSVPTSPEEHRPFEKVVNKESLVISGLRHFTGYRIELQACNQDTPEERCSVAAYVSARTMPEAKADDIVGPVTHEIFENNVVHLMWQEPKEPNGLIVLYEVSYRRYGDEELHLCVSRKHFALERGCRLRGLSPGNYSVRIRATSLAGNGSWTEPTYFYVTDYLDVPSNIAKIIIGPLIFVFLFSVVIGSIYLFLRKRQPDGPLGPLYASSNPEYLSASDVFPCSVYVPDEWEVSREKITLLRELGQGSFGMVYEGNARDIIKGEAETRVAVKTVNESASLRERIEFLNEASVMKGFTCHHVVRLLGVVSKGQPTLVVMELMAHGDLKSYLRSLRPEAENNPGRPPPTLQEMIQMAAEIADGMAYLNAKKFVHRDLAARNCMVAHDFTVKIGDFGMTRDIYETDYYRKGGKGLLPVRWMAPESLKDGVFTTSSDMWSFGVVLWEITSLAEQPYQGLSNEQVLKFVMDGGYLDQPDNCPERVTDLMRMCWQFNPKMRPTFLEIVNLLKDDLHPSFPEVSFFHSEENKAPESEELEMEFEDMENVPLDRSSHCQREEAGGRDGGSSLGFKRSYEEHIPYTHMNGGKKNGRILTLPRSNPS

IC50: 1.8 nM
Substance: N^6,B29, N^6,B29′-(C3-tartaric acid-C3)insulin human [Dimer 85]
